Experimental data as given in patent publication US20250115598A1 (Anaxis Pharma Pty Ltd, priority 2021, published 2025).

Experiments:
[1] = target: human MLKL (full length) (Homo sapiens (Human), UniProt Q8NB16); assay: KINOMEscan binding assay, human MLKL (full length); conditions: KINOMEscan, Table 21; read-out: Human MLKL (full-length) (KD)
Description: Binding affinity of the test compounds for human MLKL (full length), mouse MLKL (full length), human RIPK1 and human RIPK3 was determined using the KINOMEscan™ technology developed by DiscoverX (USA; http://www.discoverx.com). The assay was conducted according to manufacturer instructions.
Kinase assays. For most assays, kinase-tagged T7 phage strains were grown in parallel in 24-well blocks in an E. coli host derived from the BL21 strain. E. coli were grown to log-phase and infected with T7 phage from a frozen stock (multiplicity of infection=0.4) and incubated with shaking at 32° C. until lysis (90-150 minutes). The lysates were centrifuged (6,000×g) and filtered (0.2 μm) to remove cell debris. The remaining kinases were produced in HEK-293 cells and subsequently tagged with DNA for qPCR detection. […] The liganded beads were blocked with excess biotin and washed with blocking buffer (SeaBlock (Pierce), 1% BSA, 0.05% Tween 20, 1 mM DTT) to remove unbound ligand and to reduce non-specific phage binding. […] All reactions were performed in polypropylene 384-well plates in a final volume of 20 μL. […] The kinase concentration in the eluates was measured by qPCR.
An 11-point 3-fold serial dilution of each test compound was prepared in 100% DMSO at 100× final test concentration and subsequently diluted to 1× in the assay (final DMSO concentration=1%). Most Kos were determined using a compound top concentration=30,000 nM.
KD for each test compound was calculated with a standard dose-response curve using the Hill equation (equation (1)): […]
The Hill Slope was set to −1.
Curves were fitted using a non-linear least square fit with the Levenberg-Marquardt algorithm.

[2] = target: human RIPK1 (Homo sapiens (Human), UniProt Q13546); assay: KINOMEscan binding assay, human RIPK1; conditions: Table 21
Summary of the method: (§1)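 Assay principle: test compound competes with immobilized bead ligand for kinase; kinase retained, then eluted, is counted by qPCR. Conditions were 1% DMSO final with 11 compound concentrations in 3-fold steps, 30,000 nM top for most. The Hill equation with slope −1 gave Kd.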

[3] = target: human RIPK3 (Homo sapiens (Human), UniProt Q9Y572); assay: KINOMEscan binding assay, human RIPK3; conditions: Table 21
Summary of the method: as §1

Chain of human RIPK1 (Q13546 whole entry): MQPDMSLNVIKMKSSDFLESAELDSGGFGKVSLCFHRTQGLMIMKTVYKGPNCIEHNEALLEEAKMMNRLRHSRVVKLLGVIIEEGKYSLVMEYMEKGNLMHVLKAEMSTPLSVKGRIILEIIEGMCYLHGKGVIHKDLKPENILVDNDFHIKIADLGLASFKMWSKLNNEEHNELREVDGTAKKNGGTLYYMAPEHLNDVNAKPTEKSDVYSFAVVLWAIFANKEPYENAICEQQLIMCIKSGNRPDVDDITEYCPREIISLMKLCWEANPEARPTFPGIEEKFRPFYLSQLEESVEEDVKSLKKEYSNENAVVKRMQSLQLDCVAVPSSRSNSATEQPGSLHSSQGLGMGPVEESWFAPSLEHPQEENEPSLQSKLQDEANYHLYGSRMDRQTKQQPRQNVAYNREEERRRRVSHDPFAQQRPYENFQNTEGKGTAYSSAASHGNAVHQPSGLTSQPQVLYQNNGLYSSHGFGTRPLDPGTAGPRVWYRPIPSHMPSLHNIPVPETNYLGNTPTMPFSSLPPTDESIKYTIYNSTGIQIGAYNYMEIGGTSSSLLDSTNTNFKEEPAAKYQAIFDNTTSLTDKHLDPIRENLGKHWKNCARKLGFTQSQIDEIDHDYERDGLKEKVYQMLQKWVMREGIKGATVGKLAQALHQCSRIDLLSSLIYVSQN
Chain of human RIPK3 (Q9Y572 whole entry): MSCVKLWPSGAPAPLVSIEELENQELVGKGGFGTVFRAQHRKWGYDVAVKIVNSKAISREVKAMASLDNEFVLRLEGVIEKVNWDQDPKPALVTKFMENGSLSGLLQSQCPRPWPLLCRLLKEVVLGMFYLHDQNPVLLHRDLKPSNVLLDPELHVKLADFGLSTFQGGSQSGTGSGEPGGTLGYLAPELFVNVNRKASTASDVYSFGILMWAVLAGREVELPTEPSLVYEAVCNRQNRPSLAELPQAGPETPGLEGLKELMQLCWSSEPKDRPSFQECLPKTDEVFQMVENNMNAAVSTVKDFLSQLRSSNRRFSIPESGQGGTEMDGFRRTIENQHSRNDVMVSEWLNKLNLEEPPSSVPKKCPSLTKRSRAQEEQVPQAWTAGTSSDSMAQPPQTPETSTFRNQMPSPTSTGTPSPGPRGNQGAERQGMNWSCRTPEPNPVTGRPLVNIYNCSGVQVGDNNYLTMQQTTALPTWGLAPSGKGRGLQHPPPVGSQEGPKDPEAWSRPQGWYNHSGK
Chain of human MLKL (full length) (Q8NB16 whole entry): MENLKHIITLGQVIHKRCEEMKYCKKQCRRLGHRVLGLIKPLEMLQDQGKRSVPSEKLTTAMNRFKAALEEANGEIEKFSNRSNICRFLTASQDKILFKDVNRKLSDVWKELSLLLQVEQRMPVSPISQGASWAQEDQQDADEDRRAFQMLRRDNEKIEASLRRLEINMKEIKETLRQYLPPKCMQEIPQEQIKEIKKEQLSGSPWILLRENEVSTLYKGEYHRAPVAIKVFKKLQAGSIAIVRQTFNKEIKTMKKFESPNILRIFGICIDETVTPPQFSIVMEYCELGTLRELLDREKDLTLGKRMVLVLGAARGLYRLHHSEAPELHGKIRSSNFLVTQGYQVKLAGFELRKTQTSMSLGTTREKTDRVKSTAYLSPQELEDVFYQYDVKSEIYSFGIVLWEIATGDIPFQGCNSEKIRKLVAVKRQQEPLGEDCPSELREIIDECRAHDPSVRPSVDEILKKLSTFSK

Row | SMILES | Kd [1] [µM] | Kd [2] [µM] | Kd [3] [µM]
1 | CC(C)n1cc(-c2cnc(N)c3c(-c4ccc(NS(=O)(=O)C(F)F)c(O[C@@H](C)c5ccc(F)cc5)c4)nn(C)c23)cn1 [Compound 31, (S)-N-(4-(4-amino-7-(1-isopropyl-1H-pyrazol-4-yl)-1-methyl-1H-pyrazolo[4,3-c]pyridin-3-yl)-2-(1-(4-fluorophenyl)ethoxy)phenyl)-1,1-difluoromethanesulfonamide] | < 0.001 | > 10 | > 10
2 | C[C@H](Oc1cc(-c2cnn3c(-c4cnn(C)c4)cnc(N)c23)ccc1NS(=O)(=O)C(F)F)c1ccc(F)cc1 [Compound 35, (S)-N-(4-(4-amino-7-(1-methyl-1H-pyrazol-4-yl)pyrazolo[1,5-a]pyrazin-3-yl)-2-(1-(4-fluorophenyl)ethoxy)phenyl)-1,1-difluoromethane-sulfonamide] | < 0.001 | > 10 | > 10
3 | C[C@H](Oc1cc(-c2cnn3c(-c4cnn(C5CCOCC5)c4)cnc(N)c23)ccc1NS(=O)(=O)C(F)F)c1ccc(F)cc1 [Compound 36, (S)-N-(4-(4-amino-7-(1-(tetrahydro-2H-pyran-4-yl)-1H-pyrazol-4-yl)pyrazolo[1,5-a]pyrazin-3-yl)-2-(1-(4-fluorophenyl)ethoxy)phenyl)-1,1-difluoromethane-sulfonamide] | < 0.001 | > 10 | > 10
4 | C[C@H](Oc1cc(-c2cnn3c(-c4cnn(CCO)c4)cnc(N)c23)ccc1NS(=O)(=O)C(F)F)c1ccc(F)cc1 [Compound 37, (S)-N-(4-(4-amino-7-(1-(2-hydroxyethyl)-1H-pyrazol-4-yl)pyrazolo[1,5-a]pyrazin-3-yl)-2-(1-(4-fluorophenyl)ethoxy)phenyl)-1,1-difluoromethane-sulfonamide] | < 0.001 | > 10 | > 10
5 | C[C@H](Oc1cc(-c2nn(C)c3c(-c4cnn(C5COC5)c4)cnc(N)c23)ccc1NS(=O)(=O)C(F)F)c1ccc(F)cc1 [Compound 38, (S)-N-(4-(4-amino-1-methyl-7-(1-(oxetan-3-yl)-1H-pyrazol-4-yl)-1H-pyrazolo[4,3-c]pyridin-3-yl)-2-(1-(4-fluorophenyl)ethoxy)phenyl)-1,1-difluoromethanesulfonamide] | < 0.001 | > 10 | > 10
6 | C[C@H](Oc1cc(-c2cnn3c(-c4ccncc4)cnc(N)c23)ccc1NS(=O)(=O)C(F)F)c1ccc(F)cc1 [Compound 39, (S)-N-(4-(4-amino-7-(pyridin-4-yl)pyrazolo[1,5-a]pyrazin-3-yl)-2-(1-(4-fluoro-phenyl)ethoxy)phenyl)-1,1-difluoromethane-sulfonamide] | < 0.001 | > 10 | > 10
7 | C[C@H](Oc1cc(-c2nn(C)c3c(-c4ccncn4)cnc(N)c23)ccc1NS(=O)(=O)C(F)F)c1ccc(F)cc1 [Compound 40, (S)—N-(4-(4-amino-1-methyl-7-(pyrimidin-4-yl)-1H-pyrazolo[4,3-c]pyridin-3-yl)-2-(1-(4-fluorophenyl)ethoxy)phenyl)-1,1-difluoromethanesulfonamide] | < 0.001 | > 10 | > 10
8 | C[C@H](Oc1cc(-c2nn(C)c3c(-c4cnn(C5CCOC5)c4)cnc(N)c23)ccc1NS(=O)(=O)C(F)F)c1ccc(F)cc1 (stereo partly drawn) [Compound 41, N-(4-(4-amino-1-methyl-7-(1-(tetrahydrofuran-3-yl)-1H-pyrazol-4-yl)-1H-pyrazolo[4,3-c]pyridin-3-yl)-2-((S)-1-(4-fluorophenyl)ethoxy)phenyl)-1,1-difluoromethanesulfonamide] | < 0.001 | > 10 | > 10
9 | CC(C)n1nc(-c2ccc(NS(=O)(=O)C(F)F)c(O[C@@H](C)c3ccc(F)cc3)c2)c2c(N)ncc(-c3ccncc3)c21 [Compound 50, (S)-N-(4-(4-amino-1-isopropyl-7-(pyridin-4-yl)-1H-pyrazolo[4,3-c]pyridin-3-yl)-2-(1-(4-fluorophenyl)ethoxy)phenyl)-1,1-difluoromethane-sulfonamide] | < 0.001 | > 10 | > 10

More lines, now with the values ahead:

Row | Kd [1] [µM] | Kd [2] [µM] | Kd [3] [µM] | SMILES
10 | < 0.001 | > 10 | > 10 | C[C@H](Oc1cc(-c2coc3c(-c4cnn(CCO)c4)cnc(N)c23)ccc1NS(=O)(=O)C(F)F)c1ccc(F)cc1 [Compound 9, (S)-N-(4-(4-amino-7-(1-(2-hydroxyethyl)-1H-pyrazol-4-yl)furo[3,2-c]pyridin-3-yl)-2-(1-(4-fluoro-phenyl)eth-oxy)phenyl)-1,1-difluoromethane-sulfonamide]
11 | < 0.001 | > 10 | > 10 | Cn1cc(-c2cnc(N)c3c(-c4ccc(NS(=O)(=O)C(F)F)c(OCc5ccc(F)cc5)c4)nn(C)c23)cn1 [Compound 16, N-(4-(4-amino-1-methyl-7-(1-methyl-1H-pyrazol-4-yl)-1H-pyrazolo[4,3-c]pyridin-3-yl)-2-((4-fluoro-benzyl)oxy)phenyl)-1,1-difluoromethane-sulfonamide]
12 | < 0.001 | > 10 | > 10 | C[C@H](Oc1cc(-c2nn(C)c3ccnc(N)c23)ccc1NS(=O)(=O)C(F)F)c1ccc(F)cc1 [Compound 17, N-(4-{4-amino-1-methyl-1H-pyrazolo[4,3-c]pyridin-3-yl}-2-[(1S)-1-(4-fluorophenyl)ethoxy]phenyl)-1,1-difluoromethanesulfonamide]
13 | < 0.001 | > 10 | > 10 | C[C@H](Oc1cc(-c2nn(C)c3c(-c4ccncc4)cnc(N)c23)ccc1NS(=O)(=O)C(F)F)c1ccc(F)cc1 [Compound 18, (S)-N-(4-(4-amino-1-methyl-7-(pyridin-4-yl)-1H-pyrazolo[4,3-c]pyridin-3-yl)-2-(1-(4-fluorophenyl)ethoxy)phenyl)-1,1-difluoromethanesulfonamide]
14 | < 0.001 | > 10 | > 10 | C[C@H](Oc1cc(-c2nn(C)c3c(C4=CCN(C)CC4)cnc(N)c23)ccc1NS(=O)(=O)C(F)F)c1ccc(F)cc1 [Compound 21, (S)-N-(4-(4-amino-1-methyl-7-(1-methyl-1,2,3,6-tetrahydropyridin-4-yl)-1H-pyrazolo[4,3-c]pyridin-3-yl)-2-(1-(4-fluorophenyl)ethoxy)phenyl)-1,1-difluoromethanesulfonamide]
15 | < 0.001 | > 10 | > 10 | Cc1cc(-c2cnc(N)c3c(-c4ccc(NS(=O)(=O)C(F)F)c(O[C@@H](C)c5ccc(F)cc5)c4)nn(C)c23)ccn1 [Compound 24, (S)-N-(4-(4-amino-1-methyl-7-(2-methylpyridin-4-yl)-1H-pyrazolo[4,3-c]pyridin-3-yl)-2-(1-(4-fluorophenyl)ethoxy)phenyl)-1,1-difluoromethanesulfonamide]
16 | < 0.001 | > 10 | > 10 | C[C@H](Oc1cc(-c2nn(C)c3c(-c4cccnc4)cnc(N)c23)ccc1NS(=O)(=O)C(F)F)c1ccc(F)cc1 [Compound 25, (S)-N-(4-(4-amino-1-methyl-7-(pyridin-3-yl)-1H-pyrazolo[4,3-c]pyridin-3-yl)-2-(1-(4-fluorophenyl)ethoxy)phenyl)-1,1-difluoromethanesulfonamide]
17 | < 0.001 | > 10 | > 10 | Cc1ccc(-c2cnc(N)c3c(-c4ccc(NS(=O)(=O)C(F)F)c(O[C@@H](C)c5ccc(F)cc5)c4)nn(C)c23)cn1 [Compound 26, (S)-N-(4-(4-amino-1-methyl-7-(6-methylpyridin-3-yl)-1H-pyrazolo[4,3-c]pyridin-3-yl)-2-(1-(4-fluorophenyl)ethoxy)phenyl)-1,1-difluoromethanesulfonamide]
18 | < 0.001 | > 10 | > 10 | COc1ccc(-c2cnc(N)c3c(-c4ccc(NS(=O)(=O)C(F)F)c(O[C@@H](C)c5ccc(F)cc5)c4)nn(C)c23)cn1 [Compound 28, (S)-N-(4-(4-amino-7-(6-methoxypyridin-3-yl)-1-methyl-1H-pyrazolo[4,3-c]pyridin-3-yl)-2-(1-(4-fluorophenyl)ethoxy)phenyl)-1,1-difluoromethanesulfonamide]
19 | < 0.001 | > 10 | > 10 | COCCn1cc(-c2cnc(N)c3c(-c4ccc(NS(=O)(=O)C(F)F)c(O[C@@H](C)c5ccc(F)cc5)c4)nn(C)c23)cn1 [Compound 29, (S)-N-(4-(4-amino-7-(1-(2-methoxyethyl)-1H-pyrazol-4-yl)-1-methyl-1H-pyrazolo[4,3-c]pyridin-3-yl)-2-(1-(4-fluorophenyl)ethoxy)phenyl)-1,1-difluoromethanesulfonamide]
